Test system: Escherichia coli
Test: minimum inhibitory concentration (MIC)
Description: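 Broth microdilution MIC (Sensititre BOPO7F bovine plate, CLSI methods) of 19 antimicrobials against field isolates of P. multocida, M. haemolytica, H. somni (deep nasopharyngeal swabs) and E. coli, Enterococcus spp. (rectal swabs) from weaned dairy heifers. Incubation 16-24 h at 35 C. MIC is the lowest concentration preventing visible growth. Values with <= or > lie at the tested range limits. Trimethoprim-sulfamethoxazole is given as the trimethoprim component of a 1:19 mixture.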

Measured: minimum inhibitory concentration

CCC[C@@H]1C[C@@H](C(=O)N[C@@H]([C@H]2O[C@H](SC)[C@H](O)[C@@H](O)[C@H]2O)[C@H](C)Cl)N(C)C1 [Clindamycin]
> 16 µg/mL: isolate (source animal id): 8 | isolate (source animal id): 9 | isolate (source animal id): 10 | isolate (source animal id): 11 | isolate (source animal id): 12 | isolate (source animal id): 13 | isolate (source animal id): 14 | isolate (source animal id): 15 | isolate (source animal id): 16 | isolate (source animal id): 98 | isolate (source animal id): 99 | isolate (source animal id): 100 | isolate (source animal id): 101 | isolate (source animal id): 102 | isolate (source animal id): 103 | isolate (source animal id): 104 | isolate (source animal id): 105 | isolate (source animal id): 106 | isolate (source animal id): 107 | isolate (source animal id): 108 | isolate (source animal id): 109 | isolate (source animal id): 110 | isolate (source animal id): 111 | isolate (source animal id): 112 | isolate (source animal id): 113 | isolate (source animal id): 114 | isolate (source animal id): 115 | isolate (source animal id): 116 | isolate (source animal id): 117 | isolate (source animal id): 118 | isolate (source animal id): 119 | isolate (source animal id): 120 | isolate (source animal id): 121 | isolate (source animal id): 122 | isolate (source animal id): 123 | isolate (source animal id): 124 | isolate (source animal id): 125 | isolate (source animal id): 126 | isolate (source animal id): 127 | isolate (source animal id): 128 | isolate (source animal id): 129 | isolate (source animal id): 130 | isolate (source animal id): 131 | isolate (source animal id): 132 | isolate (source animal id): 133 | isolate (source animal id): 134 | isolate (source animal id): 135 | isolate (source animal id): 136 | isolate (source animal id): 137 | isolate (source animal id): 138 | isolate (source animal id): 139 | isolate (source animal id): 140 | isolate (source animal id): 141 | isolate (source animal id): 142 | isolate (source animal id): 143 | isolate (source animal id): 144 | isolate (source animal id): 145 | isolate (source animal id): 146 | isolate (source animal id): 147 | isolate (source animal id): 148 | isolate (source animal id): 149 | isolate (source animal id): 150 | isolate (source animal id): 151 | isolate (source animal id): 152 | isolate (source animal id): 153 | isolate (source animal id): 154 | isolate (source animal id): 155 | isolate (source animal id): 156 | isolate (source animal id): 157 | isolate (source animal id): 158 | isolate (source animal id): 159 | isolate (source animal id): 160 | isolate (source animal id): 161 | isolate (source animal id): 162 | isolate (source animal id): 163 | isolate (source animal id): 164 | isolate (source animal id): 165 | isolate (source animal id): 166 | isolate (source animal id): 167 | isolate (source animal id): 168 | isolate (source animal id): 169 | isolate (source animal id): 170 | isolate (source animal id): 171 | isolate (source animal id): 172 | isolate (source animal id): 173 | isolate (source animal id): 174 | isolate (source animal id): 175 | isolate (source animal id): 176 | isolate (source animal id): 177 | isolate (source animal id): 178 | isolate (source animal id): 179 | isolate (source animal id): 180 | isolate (source animal id): 181 | isolate (source animal id): 182 | isolate (source animal id): 183 | isolate (source animal id): 184 | isolate (source animal id): 185 | isolate (source animal id): 186 | isolate (source animal id): 187 | isolate (source animal id): 188
